Measured values from paper PMC8985489 (Alzheimer's & Dementia : Translational Research & Clinical …, 2022).
pIC50: −log10 of the molar value.

What was measured:
[1] = biological target: T1, Aβ1-40 (Homo sapiens, UniProt P05067); assay: Thioflavin T; format: biochemical
[2] = biological target: T1, Aβ1-40; assay: Circular dichroism; format: biochemical
[3] = tested on: IL-1β production and release from microglia; assay: IL-1β production and release from microglia; format: cell-based; settings: at 50 and 100 μM
[4] = tested on: IDO-1; settings: cited from earlier work
[5] = tested on: SK-N-AS neuroblastoma cells; assay: Aβ production in mammalian cells; format: cell-based, human; settings: SK-N-AS incubated with 1 μg/ml, within 3 h
[6] = biological target: biotinylated Aβ1-42 (Homo sapiens, UniProt P05067); assay: Aβ anti-oligomerization assay; format: biochemical
Chain of biotinylated Aβ1-42 (P05067 672-713): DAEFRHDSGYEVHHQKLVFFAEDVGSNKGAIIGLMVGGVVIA

[7] = biological target: Human Recombinant IDO-1 (Homo sapiens, UniProt P14902); assay: HR-IDO-1 enzymatic inhibition assay; format: biochemical
Chain of Human Recombinant IDO-1 (P14902 whole entry): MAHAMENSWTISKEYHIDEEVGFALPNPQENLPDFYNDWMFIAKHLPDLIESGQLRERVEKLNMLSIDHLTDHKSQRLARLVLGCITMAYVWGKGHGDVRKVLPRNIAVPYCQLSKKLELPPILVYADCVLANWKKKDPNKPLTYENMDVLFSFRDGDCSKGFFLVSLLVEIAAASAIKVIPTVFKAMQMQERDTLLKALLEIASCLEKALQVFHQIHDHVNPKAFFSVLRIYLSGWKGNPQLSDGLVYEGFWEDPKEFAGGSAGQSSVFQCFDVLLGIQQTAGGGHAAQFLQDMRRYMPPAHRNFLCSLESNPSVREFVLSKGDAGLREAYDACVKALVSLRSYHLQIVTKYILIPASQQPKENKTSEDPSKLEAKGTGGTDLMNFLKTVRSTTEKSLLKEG

[8] = biological target: INF-γ-induced IDO-1 activity (Homo sapiens, UniProt P14902); assay: INF-γ-induced IDO-1 activity; format: cell-based
Chain of INF-γ-induced IDO-1 activity (P14902 whole entry): as above

T1 sequence (P05067 672-711 limits assumed): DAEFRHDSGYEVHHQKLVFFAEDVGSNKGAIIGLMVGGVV

Row | Compound | Aβ anti-aggregant activity in ThT assay [1] | Aβ anti-aggregant activity in CD assay [2] | further results
1 | O=C(O)c1ccccc1O [salicylate] | exhibited Aβ anti‐aggregant activities | exhibited Aβ anti‐aggregant activities | 
2 | NCCc1c[nH]c2ccc(O)cc12 [5‐hydroxytryptamine] |  |  | IL-1β production and release from microglia [3]: modulated
3 | COc1cc(/C=C/C(=O)O)ccc1O [ferulate] | exhibited Aβ anti‐aggregant activities | exhibited Aβ anti‐aggregant activities | IDO-1 enzymatic activity [4]: shown to inhibit IDO‐1 enzymatic activity
4 | tannate | exhibited Aβ anti‐aggregant activities | exhibited Aβ anti‐aggregant activities | 
5 | O=C(O)/C=C/c1ccc(O)cc1 [4‐coumarate] | exhibited Aβ anti‐aggregant activities | exhibited Aβ anti‐aggregant activities | 
6 | O=C(O)/C=C/c1ccc(O)c(O)c1 [caffeiate] | exhibited Aβ anti‐aggregant activities | exhibited Aβ anti‐aggregant activities | 
7 | lipopolysaccharide [LPS] |  |  | Aβ concentrations in the cell lysate [5]: 800 pg/mL
8 | Oc1ccc(/C=C/c2cc(O)cc(O)c2)cc1 [resveratrol] | exhibited Aβ anti‐aggregant activities | exhibited Aβ anti‐aggregant activities | 
9 | lipoteichoic acid [LTA] |  |  | Aβ concentrations in the cell lysate [5]: 800 pg/mL
10 | N[C@@H](Cc1c[nH]c2ccccc12)C(=O)O [tryptophan] |  |  | activity in initial screen against Aβ aggregation ([6]; biotinylated Aβ1-42 anti-oligomerization screen): inactive; activity in initial screen against Aβ aggregation ([1]; kinetic ThT Aβ1-40 anti-aggregation screen): inactive
11 | COc1ccc2[nH]cc(/C=C/c3ccc(O)cc3)c2c1 [4b, (E)‐4‐(2‐[5‐methoxy‐1H‐indol‐3‐yl]vinyl)phenol] |  |  | pIC50 [6]: 5.19; pIC50 [7]: 5.55; pIC50 [8]: 4.97
12 | COc1cc(/C=C/C(=O)O)cc(OC)c1O [sinapate] | exhibited Aβ anti‐aggregant activities | exhibited Aβ anti‐aggregant activities | 
